One test deals with T1, TEC (Homo sapiens, UniProt P42680).
T1 sequence (P42680 1-631): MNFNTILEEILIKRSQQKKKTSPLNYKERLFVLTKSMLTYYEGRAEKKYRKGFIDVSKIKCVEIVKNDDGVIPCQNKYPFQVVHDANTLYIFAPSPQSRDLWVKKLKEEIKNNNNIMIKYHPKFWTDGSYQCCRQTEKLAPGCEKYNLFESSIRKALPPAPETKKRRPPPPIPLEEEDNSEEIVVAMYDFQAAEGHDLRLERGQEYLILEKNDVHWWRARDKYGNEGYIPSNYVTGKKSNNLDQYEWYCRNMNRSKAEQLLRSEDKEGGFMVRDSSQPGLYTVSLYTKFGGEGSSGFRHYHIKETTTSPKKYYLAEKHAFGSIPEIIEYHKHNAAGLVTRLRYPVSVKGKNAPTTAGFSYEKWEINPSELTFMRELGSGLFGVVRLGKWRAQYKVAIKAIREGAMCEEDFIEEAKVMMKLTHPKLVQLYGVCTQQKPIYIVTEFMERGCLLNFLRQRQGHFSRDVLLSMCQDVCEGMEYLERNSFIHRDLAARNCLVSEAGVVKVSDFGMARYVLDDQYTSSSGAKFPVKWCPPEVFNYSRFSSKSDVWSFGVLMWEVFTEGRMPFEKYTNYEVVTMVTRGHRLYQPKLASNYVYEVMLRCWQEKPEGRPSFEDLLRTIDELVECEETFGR
Nature of the test: KINOMEscan binding assay. Also on record: purchased Eurofins DiscoverX (KINOMEscan scanMAX service).

The target of a further test is ULK3 (Homo sapiens, UniProt Q6PHR2). Nature of the test: biochemical. Also on record: KINOMEscan scanMAX competition binding, DNA-tagged kinases, qPCR read-out, percent control at 300 nM.
The next test has as its target T2, ERK2 (Homo sapiens, UniProt P28482).
T2 construct: gene MAPK1
Nature of the test: biochemical. On the set-up: KINOMEscan scanMAX competition binding, DNA-tagged kinases, qPCR read-out, percent control at 300 nM.

A further test deals with T3, CDC2L1 (Homo sapiens, UniProt P21127).
T3 construct: gene CDK11B
T3 sequence (P21127 whole entry): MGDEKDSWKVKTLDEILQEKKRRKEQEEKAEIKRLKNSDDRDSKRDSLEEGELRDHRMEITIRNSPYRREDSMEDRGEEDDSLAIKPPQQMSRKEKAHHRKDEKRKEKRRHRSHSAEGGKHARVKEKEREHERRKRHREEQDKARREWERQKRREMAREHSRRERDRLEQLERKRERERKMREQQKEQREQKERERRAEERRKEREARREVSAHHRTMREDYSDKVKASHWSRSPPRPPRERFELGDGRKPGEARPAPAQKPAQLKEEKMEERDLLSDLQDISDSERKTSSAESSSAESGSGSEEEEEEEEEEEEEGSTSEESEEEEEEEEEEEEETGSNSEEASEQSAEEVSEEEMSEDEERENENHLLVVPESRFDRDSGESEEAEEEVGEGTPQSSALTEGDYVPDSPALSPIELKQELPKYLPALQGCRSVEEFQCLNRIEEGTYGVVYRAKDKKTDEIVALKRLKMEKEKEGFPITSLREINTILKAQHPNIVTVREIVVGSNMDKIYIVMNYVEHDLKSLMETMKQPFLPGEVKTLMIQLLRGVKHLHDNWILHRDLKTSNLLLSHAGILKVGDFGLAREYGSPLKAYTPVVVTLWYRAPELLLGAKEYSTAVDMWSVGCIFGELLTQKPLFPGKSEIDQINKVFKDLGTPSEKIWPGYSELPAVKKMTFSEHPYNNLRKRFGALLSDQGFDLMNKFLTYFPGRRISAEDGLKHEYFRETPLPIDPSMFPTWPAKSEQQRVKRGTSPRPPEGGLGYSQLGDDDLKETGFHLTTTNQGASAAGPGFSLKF
Nature of the test: biochemical. Also on record: KINOMEscan scanMAX competition binding, DNA-tagged kinases, qPCR read-out, percent control at 300 nM.

The next test has as its target T4, DCAMKL2 (Homo sapiens, UniProt Q8N568).
T4 construct: gene DCLK2
The test is described as follows: biochemical. Also on record: KINOMEscan scanMAX competition binding, DNA-tagged kinases, qPCR read-out, percent control at 300 nM.

Another test addresses T5, FAK (Homo sapiens, UniProt Q05397).
T5 construct: gene PTK2
Nature of the test: biochemical. Also on record: KINOMEscan scanMAX competition binding, DNA-tagged kinases, qPCR read-out, percent control at 300 nM.

Another test concerns the target CIT (Homo sapiens, UniProt O14578). Nature of the test: biochemical. On the set-up: KINOMEscan scanMAX competition binding, DNA-tagged kinases, qPCR read-out, percent control at 300 nM.
The target of another test is T6, OSR1 (Homo sapiens, UniProt O95747).
T6 construct: gene OXSR1
T6 sequence (O95747 whole entry): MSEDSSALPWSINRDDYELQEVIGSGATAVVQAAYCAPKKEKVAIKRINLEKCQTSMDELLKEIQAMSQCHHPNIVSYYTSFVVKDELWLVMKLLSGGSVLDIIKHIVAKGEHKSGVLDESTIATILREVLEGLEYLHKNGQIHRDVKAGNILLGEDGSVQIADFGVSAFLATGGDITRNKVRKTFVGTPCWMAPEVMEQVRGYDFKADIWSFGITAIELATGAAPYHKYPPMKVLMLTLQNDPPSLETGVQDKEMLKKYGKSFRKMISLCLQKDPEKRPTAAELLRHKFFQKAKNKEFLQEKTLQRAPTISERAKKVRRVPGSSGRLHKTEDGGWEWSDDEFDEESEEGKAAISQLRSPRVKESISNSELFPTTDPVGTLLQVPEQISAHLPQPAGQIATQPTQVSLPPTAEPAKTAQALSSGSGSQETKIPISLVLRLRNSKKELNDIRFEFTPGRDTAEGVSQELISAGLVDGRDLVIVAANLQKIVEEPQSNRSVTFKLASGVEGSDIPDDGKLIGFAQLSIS
The test is described as follows: biochemical. On the set-up: KINOMEscan scanMAX competition binding, DNA-tagged kinases, qPCR read-out, percent control at 300 nM.

The next test deals with SNRK (Homo sapiens, UniProt Q9NRH2). The test is described as follows: biochemical. On the set-up: KINOMEscan scanMAX competition binding, DNA-tagged kinases, qPCR read-out, percent control at 300 nM.
Chain of SNRK (Q9NRH2 whole entry): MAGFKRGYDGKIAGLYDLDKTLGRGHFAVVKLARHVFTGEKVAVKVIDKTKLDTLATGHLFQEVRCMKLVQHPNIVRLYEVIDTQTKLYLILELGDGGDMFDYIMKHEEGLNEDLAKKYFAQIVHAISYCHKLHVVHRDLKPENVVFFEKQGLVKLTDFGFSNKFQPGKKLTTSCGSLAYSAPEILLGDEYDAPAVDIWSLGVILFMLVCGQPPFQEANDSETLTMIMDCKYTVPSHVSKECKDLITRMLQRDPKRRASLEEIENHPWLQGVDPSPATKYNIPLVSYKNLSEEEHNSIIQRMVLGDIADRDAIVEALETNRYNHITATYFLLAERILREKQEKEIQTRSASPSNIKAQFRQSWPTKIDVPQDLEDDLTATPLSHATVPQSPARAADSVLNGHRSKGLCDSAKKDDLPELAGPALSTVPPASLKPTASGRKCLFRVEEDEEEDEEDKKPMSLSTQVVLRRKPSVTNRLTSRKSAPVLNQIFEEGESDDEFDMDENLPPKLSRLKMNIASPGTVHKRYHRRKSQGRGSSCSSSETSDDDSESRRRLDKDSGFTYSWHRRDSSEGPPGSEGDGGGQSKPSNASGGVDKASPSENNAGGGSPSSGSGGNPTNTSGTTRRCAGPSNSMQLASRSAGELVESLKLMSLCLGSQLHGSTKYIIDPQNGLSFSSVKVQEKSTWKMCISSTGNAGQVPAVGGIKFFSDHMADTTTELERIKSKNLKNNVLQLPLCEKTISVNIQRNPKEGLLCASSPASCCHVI
Another test has as its target T7, MLK3 (Homo sapiens, UniProt Q16584).
T7 construct: gene MAP3K11
The test is described as follows: biochemical. On the set-up: KINOMEscan scanMAX competition binding, DNA-tagged kinases, qPCR read-out, percent control at 300 nM.

The target of the next test is EPHB3 (Homo sapiens, UniProt P54753). The test is described as follows: biochemical. Also on record: KINOMEscan scanMAX competition binding, DNA-tagged kinases, qPCR read-out, percent control at 300 nM.
The target of the next test is FYN (Homo sapiens, UniProt P06241). Nature of the test: mobility shift assay (MSA).
For the next test, the target named is BLK (Homo sapiens, UniProt P51451). Nature of the test: Z'-Lyte kinase inhibition assay. The test is classed as biochemical. Also on record: purchased Thermo Fisher Scientific (Invitrogen Z'-Lyte service). Particulars: 60 min preincubation. The protocol: In all the assays, each test compound was preincubated with peptide/kinase mixture or kinase/antibody mixture for 60 min at room temperature before adding the ATP solution or AlexaFluor labeled Tracer to initiate the 60-min incubation of the reactants.

In a further test the target is RIPK2 (Homo sapiens, UniProt O43353). Nature of the test: KinAffinity cell-based binding assay using PBMC. On the set-up: in a cell-based assay using PBMC (Kd); host or cells: PBMC.
Another test deals with LCK (Homo sapiens, UniProt P06239). The test is described as follows: biochemical. On the set-up: KINOMEscan scanMAX competition binding, DNA-tagged kinases, qPCR read-out, percent control at 300 nM.
Chain of LCK (P06239 whole entry): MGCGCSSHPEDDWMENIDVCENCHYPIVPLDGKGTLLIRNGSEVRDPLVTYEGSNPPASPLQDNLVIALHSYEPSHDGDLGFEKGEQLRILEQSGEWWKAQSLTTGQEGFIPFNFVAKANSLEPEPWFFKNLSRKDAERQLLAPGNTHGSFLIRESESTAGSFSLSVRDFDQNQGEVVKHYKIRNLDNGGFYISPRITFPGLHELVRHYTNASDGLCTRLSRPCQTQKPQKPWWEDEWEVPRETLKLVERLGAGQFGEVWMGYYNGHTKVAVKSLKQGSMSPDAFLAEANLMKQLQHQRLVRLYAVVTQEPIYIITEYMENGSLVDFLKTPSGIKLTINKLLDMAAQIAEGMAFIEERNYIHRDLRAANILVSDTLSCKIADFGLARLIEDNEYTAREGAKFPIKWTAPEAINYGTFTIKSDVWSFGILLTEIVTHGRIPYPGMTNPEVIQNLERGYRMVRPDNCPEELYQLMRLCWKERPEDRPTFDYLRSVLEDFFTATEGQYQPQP
In the next test the target is EGFR(S752-I759del) (Homo sapiens, UniProt P00533, DEL752-759). The test is described as follows: biochemical. Also on record: KINOMEscan scanMAX competition binding, DNA-tagged kinases, qPCR read-out, percent control at 300 nM.
A further test concerns the target RET (Homo sapiens, UniProt P07949). Nature of the test: biochemical. Also on record: KINOMEscan scanMAX competition binding, DNA-tagged kinases, qPCR read-out, percent control at 300 nM.
A further test deals with NEK9 (Homo sapiens, UniProt Q8TD19). Nature of the test: biochemical. Also on record: KINOMEscan scanMAX competition binding, DNA-tagged kinases, qPCR read-out, percent control at 300 nM.
Setting [1] is: read-out: Percent control / Zanubrutinib.
Setting [2] is: read-out: Percent control / Tirabrutinib.
Setting [3] is: read-out: Percent control / Ibrutinib.
Where [4] appears, read: read-out: Percent control / Acalabrutinib.

Structures are written as SMILES. Read-outs that look alike come from different tables or passages of the source.

T2 sequence (P28482 whole entry): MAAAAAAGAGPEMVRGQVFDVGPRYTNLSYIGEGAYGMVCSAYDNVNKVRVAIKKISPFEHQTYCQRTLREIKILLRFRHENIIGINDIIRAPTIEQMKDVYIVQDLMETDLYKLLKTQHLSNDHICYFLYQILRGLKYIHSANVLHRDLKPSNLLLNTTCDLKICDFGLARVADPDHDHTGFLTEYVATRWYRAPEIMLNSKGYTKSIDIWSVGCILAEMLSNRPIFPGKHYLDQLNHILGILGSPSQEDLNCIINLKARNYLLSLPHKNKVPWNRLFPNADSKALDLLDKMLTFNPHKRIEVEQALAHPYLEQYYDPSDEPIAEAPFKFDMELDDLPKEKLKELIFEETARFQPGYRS
T5 sequence (Q05397 whole entry): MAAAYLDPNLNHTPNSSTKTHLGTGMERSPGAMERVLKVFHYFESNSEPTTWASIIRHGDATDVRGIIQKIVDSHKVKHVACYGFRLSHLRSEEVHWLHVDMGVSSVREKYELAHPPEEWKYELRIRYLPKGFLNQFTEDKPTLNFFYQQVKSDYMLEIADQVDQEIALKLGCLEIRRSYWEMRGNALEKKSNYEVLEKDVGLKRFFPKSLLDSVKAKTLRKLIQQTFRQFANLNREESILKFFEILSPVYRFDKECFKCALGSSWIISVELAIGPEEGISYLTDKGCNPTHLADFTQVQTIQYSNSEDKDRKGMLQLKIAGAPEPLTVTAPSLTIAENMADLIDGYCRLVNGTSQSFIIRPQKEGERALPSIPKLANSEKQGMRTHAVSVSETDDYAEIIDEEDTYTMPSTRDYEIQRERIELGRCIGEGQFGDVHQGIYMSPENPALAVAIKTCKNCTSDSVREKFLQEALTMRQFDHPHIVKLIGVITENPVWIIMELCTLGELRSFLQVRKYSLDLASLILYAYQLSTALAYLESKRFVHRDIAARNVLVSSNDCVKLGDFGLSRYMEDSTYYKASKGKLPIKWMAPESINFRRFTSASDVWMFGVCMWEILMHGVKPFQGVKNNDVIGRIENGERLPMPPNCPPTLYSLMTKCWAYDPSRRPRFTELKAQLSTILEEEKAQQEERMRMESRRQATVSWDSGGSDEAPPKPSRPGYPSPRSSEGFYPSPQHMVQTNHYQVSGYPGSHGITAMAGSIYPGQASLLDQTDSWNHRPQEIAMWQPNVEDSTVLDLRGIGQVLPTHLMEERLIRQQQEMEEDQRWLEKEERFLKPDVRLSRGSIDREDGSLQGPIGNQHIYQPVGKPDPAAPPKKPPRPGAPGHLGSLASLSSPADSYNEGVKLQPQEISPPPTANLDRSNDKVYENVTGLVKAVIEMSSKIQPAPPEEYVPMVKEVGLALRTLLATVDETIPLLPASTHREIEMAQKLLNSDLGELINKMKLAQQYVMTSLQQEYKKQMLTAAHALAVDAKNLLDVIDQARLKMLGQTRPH
T7 sequence (Q16584 whole entry): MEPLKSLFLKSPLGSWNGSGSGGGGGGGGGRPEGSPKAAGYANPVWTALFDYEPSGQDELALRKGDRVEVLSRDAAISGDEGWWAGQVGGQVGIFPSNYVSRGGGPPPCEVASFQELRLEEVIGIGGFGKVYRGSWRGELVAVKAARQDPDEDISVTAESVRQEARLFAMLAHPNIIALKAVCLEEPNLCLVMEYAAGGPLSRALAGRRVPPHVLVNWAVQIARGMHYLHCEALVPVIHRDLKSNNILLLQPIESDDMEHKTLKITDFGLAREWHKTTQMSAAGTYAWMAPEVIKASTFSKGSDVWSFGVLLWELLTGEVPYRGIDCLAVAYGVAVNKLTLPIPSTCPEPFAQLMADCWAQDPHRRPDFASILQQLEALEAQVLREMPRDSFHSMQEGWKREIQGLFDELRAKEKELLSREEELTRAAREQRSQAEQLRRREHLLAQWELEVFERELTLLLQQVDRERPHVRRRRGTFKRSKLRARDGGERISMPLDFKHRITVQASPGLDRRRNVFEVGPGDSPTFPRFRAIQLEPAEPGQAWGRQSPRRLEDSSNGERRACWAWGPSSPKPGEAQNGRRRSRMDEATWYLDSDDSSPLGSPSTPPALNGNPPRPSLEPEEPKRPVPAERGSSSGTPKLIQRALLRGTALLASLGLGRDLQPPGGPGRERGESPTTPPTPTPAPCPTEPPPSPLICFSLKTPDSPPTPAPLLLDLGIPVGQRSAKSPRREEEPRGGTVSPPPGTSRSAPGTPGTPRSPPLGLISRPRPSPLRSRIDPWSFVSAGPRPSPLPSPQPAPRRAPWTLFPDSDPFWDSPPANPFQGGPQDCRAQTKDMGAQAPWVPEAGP

On TEC (kinase TEC (Entrez TEC)), `C=CC(=O)N1CCC([C@@H]2CCNc3c(C(N)=O)c(-c4ccc(Oc5ccccc5)cc4)nn32)CC1` [Zanubrutinib] registered a Percent control of 20%. Also, the remaining binding at 0.3 µM on ULK3 (setting [1]) came out at 82%; on ERK2 (setting [1]), 100%; at CDC2L1 (setting [1]) it was 90%; at DCAMKL2 (setting [1]) it was 91%; on FAK (setting [1]), 100%; at CIT (setting [1]), 100%. Also, the remaining binding at 0.3 µM on OSR1 (setting [1]) stood at 100%; on SNRK (setting [1]) it was 90%; at MLK3 (setting [1]), 98%; on EPHB3 (setting [1]), 96%.
In general, IC50 refers to the concentration at which inhibition is half-maximal. What is called Kd is the constant that tells how readily two partners part at equilibrium. Read a high Kd as weaker binding. One may read the inhibition as the relative decrease from the control value, in per cent. Turning to `CC#CC(=O)N1CC[C@@H](n2c(=O)n(-c3ccc(Oc4ccccc4)cc3)c3c(N)ncnc32)C1` [Tirabrutinib], the IC50 on FYN was 2220 nM; at BLK, 1280 nM. The same compound yielded a Kd at RIPK2 of more than 3000 nM. Also, the inhibition at 0.3 µM on TEC (300 nM, read-out: inhibition of kinase binding (KINOMEscan)) turned out to be 92.2%. Also, the remaining binding at 0.3 µM at LCK (setting [2]) is 49%; on EGFR(S752-I759del) (setting [2]), 96%.
With `C=CC(=O)N1CCC[C@@H](n2nc(-c3ccc(Oc4ccccc4)cc3)c3c(N)ncnc32)C1` [Ibrutinib], the remaining binding at 0.3 µM was 40% at RET (setting [3]) and 94% at NEK9 (setting [3]).
Turning to `CC#CC(=O)N1CCC[C@H]1c1nc(-c2ccc(C(=O)Nc3ccccn3)cc2)c2c(N)nccn12` [Acalabrutinib], the IC50 at FYN is more than 10000 nM; against BLK, 2270 nM. Moreover, the remaining binding at 0.3 µM turned out to be 91% on ULK3 (setting [4]); 87% at RET (setting [4]); 83% at LCK (setting [4]); 96% at ERK2 (setting [4]); 82% on NEK9 (setting [4]); 97% on EGFR(S752-I759del) (setting [4]). Also, the remaining binding at 0.3 µM at CDC2L1 (setting [4]) came to 93%; on DCAMKL2 (setting [4]) it was 90%; at FAK (setting [4]), 79%; on CIT (setting [4]), 81%; on OSR1 (setting [4]), 92%; at SNRK (setting [4]), 93%. The remaining binding at 0.3 µM is 87% on MLK3 (setting [4]) and 91% at EPHB3 (setting [4]).

The values above are taken from publication PMC10004634 (PLOS ONE, 2023).
